Patent US6482921B1, “Uridyl peptide antibiotic (UPA) derivatives, their synthesis and use” (Essential Therapeutics, Inc., priority 1999, dated 2002)
≈ marks a conversion by molar mass, not a printed value.

What was measured:
Format in all cases: cell-based
[1] = test system: Escherichia Coli MC 4100 AcrAB; assay: MIC broth microdilution, E. coli MC 4100 AcrAB (ΔAcrAB); details: E. coli AcrAB
[2] = test system: Staphylococcus aureus ATCC 29213; assay: MIC broth microdilution, S. aureus ATCC 29213 (wild type); details: S. aureus ATCC 29213
[3] = test system: Pseudomonas aeruginosa PAM 1135; assay: MIC broth microdilution, P. aeruginosa PAM 1135 (high level UPA resistance); details: P. aeruginosa PAM 1135 UPA1^r
[4] = test system: Staphylococcus aureus 8325-4; assay: MIC broth microdilution, S. aureus 8325-4 (wild type); details: S. aureus 8325-4
[5] = test system: Pseudomonas aeruginosa PAM 1020; assay: MIC broth microdilution, P. aeruginosa PAM 1020 (wild type); details: P. aeruginosa PAM 1020
[6] = test system: Pasteurella multocida pm002; assay: MIC broth microdilution, P. multocida pm002 (wild type)
[7] = test system: Escherichia Coli MC 4100 AcrAB UPA3r; assay: MIC broth microdilution, E. coli MC 4100 AcrAB UPA3r (ΔAcrAB, UPA resistant); details: E. coli AcrAB UPA3^r
[8] = test system: Pseudomonas aeruginosa PAM 1154; assay: MIC broth microdilution, P. aeruginosa PAM 1154 (OprM::Hg); details: P. aeruginosa PAM 1154 OprM::Hg
[9] = test system: Pseudomonas aeruginosa PAM 1323; assay: MIC broth microdilution, P. aeruginosa PAM 1323 (medium level UPA resistance)
Method: Compounds were tested against several panels of bacteria. In a first panel, Table 3, several strains of Pseudomonas aeruginosa, Escherichia coli and Staphylococcus aureus were employed as the target bacteria.
For the bacteria in Table 3, the assay was performed in Mueller-Hinton Broth (MHB) with a final bacterial inoculum of 5×10^5 CFU/ml and a final volume of 100 μl. Control drugs, including imipenem and pacidimycin 4, and the test compounds were prepared at a concentration which was twice the desired final concentration (256 μg/ml). Dilution of the controls and the test compounds was accomplished directly on the test plates by serial 2-fold dilution using a multi-channel pipette. Both a positive and a negative growth control was included in each plate.
The bacterial inocula were prepared as follows. Bacterial strains were grown overnight at 35° C. in MHB. […] The culture was then diluted 1:10 and allowed to grow for an additional one hour at 35° C. in a shaking incubator. The inocula were then prepared by diluting the early log phase (one hour) cultures 1:2000 with fresh MHB. A volume of 50 μl of the inocula was added to each well, resulting in an inoculum of approximately 5×10^5 CFU/ml. The exact inocula were determined by putting 10 μl of 10-fold serial dilution of the bacterial suspensions onto TSA. After overnight incubation at 35° C., colony-forming units were counted manually.
The microtiter plates were incubated for 20 hours at 35° C. and were then read using a microtiterplate reader (Molecular Devices) at 650 nm as well as being visually observed using a microtiterplate reading mirror.

Escherichia Coli MC 4100 = assay: MIC broth microdilution, E. coli MC 4100 (wild type); details: E. coli MC 4100

Row | SMILES | MIC (μg/ml) Broth microdilution [1] | MIC (μg/ml) Broth microdilution [2] | MIC (μg/ml) Broth microdilution [3] | MIC (μg/ml) Broth microdilution [4] | MIC (μg/ml) Broth microdilution [5] | MIC (μg/ml) Broth microdilution [6] | MIC (μg/ml) Broth microdilution [7] | MIC (μg/ml) Broth microdilution [8] | MIC (μg/ml) Broth microdilution [9] | MIC (μg/ml) Broth microdilution (Escherichia Coli MC 4100)
1 | CSCCC(NC(=O)NC(Cc1c[nH]c2ccccc12)C(=O)O)C(=O)NC(C(=O)NCC1CC(O)C(n2ccc(=O)[nH]c2=O)O1)C(C)N(C)C(=O)CN [Compound 112, 1-[5′-[(2S,3S)-N^2-[N-[[(1S)-1-Carboxy-2-indol-3-ylethyl]carbamoyl]-L-methionyl]-N^3-glycyl-N^3-methyl-2,3-diaminobutyramido]-3′,5′-dideoxy-α-L-arabinofuranosyl]uracil] | 2 µg/mL (≈ 2.63 µM) | >512 µg/mL | >512 µg/mL | >512 µg/mL | 16 µg/mL (≈ 21.1 µM) | 128 µg/mL (≈ 168 µM) | 16 µg/mL (≈ 21.1 µM) | 4 µg/mL (≈ 5.26 µM) | 256 µg/mL (≈ 337 µM) | >512 µg/mL
2 | CC(C(NC(=O)C(Cc1ccc(F)cc1)NC(=O)NC(Cc1c[nH]c2ccccc12)C(=O)O)C(=O)NCC1CC(O)C(n2ccc(=O)[nH]c2=O)O1)N(C)C(=O)C(N)Cc1ccccc1 [Compound 113, 1-[5′-[(2S,3S)-[N-[[(1S)-1-Carboxy-2-indol-3-ylethyl]carbamoyl]-L-4-fluorophenylalanyl]-N^3-L-phenylalanyl-N^3-methyl-2,3-diaminobutyramido]-3′,5′-dideoxy-α-L-arabinofuranosyl]uracil] | 8 µg/mL (≈ 9.05 µM) | >512 µg/mL | >512 µg/mL | >512 µg/mL | 64 µg/mL (≈ 72.4 µM) | 512 µg/mL (≈ 579 µM) | 64 µg/mL (≈ 72.4 µM) | 64 µg/mL (≈ 72.4 µM) | >512 µg/mL | >512 µg/mL
3 | CC(C(NC(=O)C(Cc1ccccc1)NC(=O)NC(Cc1c[nH]c2ccccc12)C(=O)O)C(=O)NCC1CC(O)C(n2ccc(=O)[nH]c2=O)O1)N(C)C(=O)C(N)Cc1ccc(F)cc1 [Compound 114, 1-[5′-((2S,3S)-N^2-[N-[[(1S)-1-Carboxy-2-indol-3-ylethyl]carbamoyl]-L-phenylalanyl]-N^3-L-4-fluorophenylalanyl-N^3-methyl-2,3-diaminobutyramidol-3′,5′-dideoxy-α-L-arabinofuranosyl]uracil] | 8 µg/mL (≈ 9.05 µM) | >512 µg/mL | 256 µg/mL (≈ 290 µM) | >512 µg/mL | 16 µg/mL (≈ 18.1 µM) | 256 µg/mL (≈ 290 µM) | 512 µg/mL (≈ 579 µM) | 16 µg/mL (≈ 18.1 µM) | 256 µg/mL (≈ 290 µM) | 512 µg/mL (≈ 579 µM)
4 | CC(C(NC(=O)C(Cc1ccc(F)cc1)NC(=O)NC(Cc1c[nH]c2ccccc12)C(=O)O)C(=O)NCC1CC(O)C(n2ccc(=O)[nH]c2=O)O1)N(C)C(=O)CN [Compound 116, 1-[5′-[(2S,3S)-N^2-[N-[[(1S)-1-Carboxy-2-indol-3-ylethyl)carbamoyl]-L-4-fluorophenylalanyl]-N^3-glycyl-N^3-methyl-3-diaminobutyramido]-3′,5′-dideoxy-α-L-arabinofuranosyl]uracil] | <1 µg/mL | 512 µg/mL (≈ 645 µM) | >512 µg/mL | 256 µg/mL (≈ 322 µM) | 32 µg/mL (≈ 40.3 µM) | 128 µg/mL (≈ 161 µM) | 16 µg/mL (≈ 20.2 µM) | 8 µg/mL (≈ 10.1 µM) | 512 µg/mL (≈ 645 µM) | 256 µg/mL (≈ 322 µM)
5 | CC(C(NC(=O)C(Cc1ccc(F)cc1)NC(=O)NC(Cc1c[nH]c2ccccc12)C(=O)O)C(=O)NCC1CC(O)C(n2ccc(=O)[nH]c2=O)O1)N(C)C(=O)C(N)Cc1ccc(F)cc1 [Compound 118, 1-[5′-(2S,3S)-N^2-[N-[[(1S)-1-Carboxy-2-indol-3-ylethyl]carbamoyl]-L-4-fluorophenylalanyl]-N^3-L-4-fluorophenylalanyl-N^3-methyl-2,3-diaminobutyramido]-3′,5′-dideoxy-α-L-arabinofuranosyl]uracil] | 8 µg/mL (≈ 8.87 µM) | >512 µg/mL | 256 µg/mL (≈ 284 µM) | >512 µg/mL | 128 µg/mL (≈ 142 µM) | 256 µg/mL (≈ 284 µM) | 256 µg/mL (≈ 284 µM) | 128 µg/mL (≈ 142 µM) | 256 µg/mL (≈ 284 µM) | 512 µg/mL (≈ 568 µM)
6 | CC(N)C(=O)N(C)C(C)C(NC(=O)C(Cc1cccs1)NC(=O)NC(Cc1ccc(O)cc1)C(=O)O)C(=O)NCC1CC(O)C(n2ccc(=O)[nH]c2=O)O1 [Compound 119, 1-[5-[(2S,3S)-N^3-L-Alanyl-N^2-[N-[[(1S)-1-carboxy-4-hydroxyphenethyl]carbamoyl]-L-3-(2-thienyl)alanyl]-N^3-methyl-2,3-diaminobutyramido]-3′,5′-dideoxy-α-L-arabinofuranosyl]uracil] | 4 µg/mL (≈ 5.18 µM) | >512 µg/mL | >512 µg/mL | >512 µg/mL | 64 µg/mL (≈ 82.8 µM) | >512 µg/mL | 64 µg/mL (≈ 82.8 µM) | 32 µg/mL (≈ 41.4 µM) | >512 µg/mL | >512 µg/mL
7 | CC(C)CC(NC(=O)NC(Cc1ccc(O)cc1)C(=O)O)C(=O)NC(C(=O)NCC1CC(O)C(n2ccc(=O)[nH]c2=O)O1)C(C)N(C)C(=O)CN [Compound 120, 1-[5′-[(2S,3S)-N^2-[N-[[(1S)-1-Carboxy-4-hydroxyphenethyl]carbamoyl]-L-leucyl)-N^3-glycyl-N^3-methyl-2,3-diaminobutyramidol-3′,5′-dideoxy-α-L-arabinofuranosyl]uracil] | 8 µg/mL (≈ 11.1 µM) | >512 µg/mL | >512 µg/mL | >512 µg/mL | 16 µg/mL (≈ 22.3 µM) | 512 µg/mL (≈ 712 µM) | 128 µg/mL (≈ 178 µM) | 4 µg/mL (≈ 5.57 µM) | 512 µg/mL (≈ 712 µM) | >512 µg/mL
8 | CC(NC(=O)NC(Cc1c[nH]c2ccccc12)C(=O)O)C(=O)NC(C(=O)NCC1CC(O)C(n2ccc(=O)[nH]c2=O)O1)C(C)N(C)C(=O)CN [Compound 121, 1-[5′1-[(2S,3S)-N^2-[N-[[(1S)-1-Carboxy-2-indol-3-ylethyl)carbamoyl]-L-alanyl]-N^3-glycyl-N^3-methyl-2,3-diaminobutyramido]-3′,5′-dideoxy-α-L-arabinofuranosyl]uracil] | 2 µg/mL (≈ 2.86 µM) | >512 µg/mL | >512 µg/mL | >512 µg/mL | 64 µg/mL (≈ 91.5 µM) | >512 µg/mL | 16 µg/mL (≈ 22.9 µM) | 4 µg/mL (≈ 5.72 µM) | >512 µg/mL | >512 µg/mL
9 | CC(N)C(=O)N(C)C(C)C(NC(=O)C(Cc1ccccc1)NC(=O)NC(Cc1ccccc1)C(=O)O)C(=O)NCC1CC(O)C(n2ccc(=O)[nH]c2=O)O1 [Compound 122, 1-[5′-[[(2S,3S)-N^3-L-Alanyl-N^2-[N-[[(1S)-1-carboxy-phenethyl]carbamoyl]-L-phenylalanyl]-N^3-methyl-2,3-diaminobutyramido]-3′,5′-dideoxy-α-L-arabinofuranosyl]uracil] | 4 µg/mL (≈ 5.33 µM) | >512 µg/mL | >512 µg/mL | 512 µg/mL (≈ 682 µM) | 64 µg/mL (≈ 85.2 µM) | >512 µg/mL | 64 µg/mL (≈ 85.2 µM) | 16 µg/mL (≈ 21.3 µM) | >512 µg/mL | >512 µg/mL
